Experimental data: patent US20230287003A1, “BCL6 INHIBITORS” (Cancer Research Technology Limited, priority 2018, published 2023)

Assays:
[1] = molecular target: BCL6-NCOR2(SMRT) corepressor protein-protein interaction (Homo sapiens (Human), UniProt P41182); experiment: NanoBRET cell assay; type: cell-based; details: for IC50: read-out: NanoBRET cell avg pIC50 (converted)
Excerpt: At 20 hr post-transfection, cells were collected, washed with PBS, and exchanged into media containing phenol red-free OptiMEM+4% FBS (Life Technology).

[2] = molecular target: human BCL6 BTB domain (Trx-6×His-BCL6) / BCOR-AF633 peptide (Homo sapiens (Human), UniProt P41182); experiment: HTRF assay; type: binding; details: 1 nM Trx-6×His-BCL6, 300 nM BCOR-AF633 peptide, 2 hours incubation
Experimental: The % inhibition at each concentration was calculated by normalising FRET ratio to the appropriate high (DMSO with all reagents) and low (DMSO without BCL6) controls.

| Compound | IC50 [1] [nM] | HTRF avg pIC50 (1 nM) [2] | NanoBRET cell avg pIC50 ([1]; HEK293T cells co-transfected with BCL6-nanoLuc and NCOR2-HaloTag, 6 hr incubation) |
| --- | --- | --- | --- |
| Cn1c(=O)c2c(c3cc(Nc4nc(N5CC(C)(C)OC(C)(C)C5)ncc4Cl)ccc31)N[C@@H](C1CC1)CCO2 [Example 5k, (R)-10-((5-chloro-2-(2,2,6,6-tetramethylmorpholino)pyrimidin-4-yl)amino)-2-cyclopropyl-7-methyl-1,2,3,4-tetrahydro-[1,4]oxazepino[2,3-c]quinolin-6(7H)-one] | 112 | 7.22 |  |
| Cn1c(=O)c2c(c3cc(Nc4ccnc(Cl)c4Cl)ccc31)N[C@@H](C1CC1)CCO2 [Example 4c] | 708 | 6.85 |  |
| COC[C@@H]1CCCN1C(=O)c1cc(Nc2ccc3c(c2)c2c(c(=O)n3C)OCC[C@H](C)N2)c(Cl)cn1 [Example 4b, (S)-10-((5-chloro-2-((S)-2-(methoxymethyl)pyrrolidine-1-carbonyl)pyridin-4-yl)amino)-2,7-dimethyl-1,2,3,4-tetrahydro-[1,4]oxazepino[2,3-c]quinolin-6(7H)-one] | 3310 | 6.70 |  |
| Cn1c(=O)c2c(c3cc(Nc4nc(N5CCC(F)(F)CC5)ncc4Cl)cnc31)N[C@@H](C1CC1)CCO2 [Example 5s, (R)-10-((5-chloro-2-(4,4-difluoropiperidin-1-yl)pyrimidin-4-yl)amino)-2-cyclopropyl-7-methyl-1,2,3,4-tetrahydro-[1,4]oxazepino[2,3-c][1,8]naphthyridin-6(7H)-one] | 234 | 7.13 |  |
| Cn1c(=O)c2c(c3cc(Nc4ccnc(Cl)c4C#N)ccc31)N[C@@H](C1CC1)CCS2 [Example 1s, (R)-2-chloro-4-((2-cyclopropyl-7-methyl-6-oxo-1,2,3,4,6,7-hexahydro-[1,4]thiazepino[2,3-c]quinolin-10-yl)amino)nicotinonitrile] | 63.1 | 7.83 |  |
| Cn1c(=O)c2c(c3cc(Nc4nc(N5CC(F)(F)C[C@@H]5CO)ncc4Cl)ccc31)N[C@@H](C1CC1)C(F)(F)CO2 [Example 12x, (S)-10-((5-chloro-2-((R)-4,4-difluoro-2-(hydroxymethyl)pyrrolidin-1-yl)pyrimidin-4-yl)amino)-2-cyclopropyl-3,3-difluoro-7-methyl-1,2,3,4-tetrahydro-[1,4]oxazepino[2,3-c]quinolin-6(7H)-one] | 145 | 8.20 |  |
| C[C@H]1CCOc2c(c3cc(Nc4nc(N5CCOCC5)ncc4Cl)ccc3n(C)c2=O)N1 [Example 5h, (S)-10-((5-chloro-2-morpholinopyrimidin-4-yl)amino)-2,7-dimethyl-1,2,3,4-tetrahydro-[1,4]oxazepino[2,3-c]quinolin-6(7H)-one] | 1740 | 7.01 |  |
| Cn1c(=O)c2c(c3cc(Nc4nc(N5C6CCC5CC(O)C6)ncc4Cl)ccc31)N[C@@H](C1CC1)CCO2 (stereo partly drawn) [Example 12f, (R)-10-((5-chloro-2-((1R,3R,5S)-3-hydroxy-8-azabicyclo[3.2.1]octan-8-yl)pyrimidin-4-yl)amino)-2-cyclopropyl-7-methyl-1,2,3,4-tetrahydro-[1,4]oxazepino[2,3-c]quinolin-6(7H)-one] | 295 | 7.96 |  |
| C[C@H]1CCOc2c(c3cc(Nc4cc(C(=O)N5CCC5)nc(Cl)c4C#N)ccc3n(C)c2=O)N1 [Example 3a, (S)-6-(azetidine-1-carbonyl)-2-chloro-4-((2,7-dimethyl-6-oxo-1,2,3,4,6,7-hexahydro-[1,4]oxazepino[2,3-c]quinolin-10-yl)amino)nicotinonitrile] | 4790 | 6.88 |  |
| Cn1c(=O)c2c(c3cc(Nc4nc(N5C6COCC5CC(O)C6)ncc4Cl)ccc31)N[C@@H](C1CC1)C(F)(F)CO2 (stereo partly drawn) [Example 11c, (S)-10-((5-chloro-2-((1R,5S,7R)-7-hydroxy-3-oxa-9-azabicyclo[3.3.1]-nonan-9-yl)pyrimidin-4-yl)amino)-2-cyclopropyl-3,3-difluoro-7-methyl-1,2,3,4-tetrahydro-[1,4]oxazepino[2,3-c]quinolin-6(7H)-one] |  | 8.93 | 8.19 |
| CCC1CCOc2c(c3cc(Nc4ccnc(Cl)c4C#N)ccc3n(C)c2=O)N1 (stereo not shown) [Example 1c, 2-chloro-4-((2-ethyl-7-methyl-6-oxo-1,2,3,4,6,7-hexahydro-[1,4]oxazepino[2,3-c]quinolin-10-yl)amino)nicotinonitrile] | 8710 | 6.32 |  |
| Cn1c(=O)c2c(c3cc(Nc4nc(N5C6CCC5COC6)ncc4Cl)ccc31)N[C@@H](C1CC1)C(F)(F)CO2 [Example 12v, (S)-10-((2-(3-oxa-8-azabicyclo[3.2.1]octan-8-yl)-5-chloropyrimidin-4-yl)amino)-2-cyclopropyl-3,3-difluoro-7-methyl-1,2,3,4-tetrahydro-[1,4]oxazepino[2,3-c]quinolin-6(7H)-one] | 8.32 | 8.86 |  |
| C[C@@H]1CN(c2nc(Cl)c(Cl)c(Nc3ccc4c(c3)c3c(c(=O)n4C)OCC[C@H](C4CC4)N3)n2)C[C@H](C)O1 [Example 1r, (R)-2-cyclopropyl-10-((5,6-dichloro-2-((2S,6R)-2,6-dimethylmorpholino)pyrimidin-4-yl)amino)-7-methyl-1,2,3,4-tetrahydro-[1,4]oxazepino[2,3-c]quinolin-6(7H)-one] | 1020 | 6.51 |  |
| CN1CCN(c2ncc(Cl)c(Nc3ccc4c(c3)c3c(c(=O)n4C)OCC(F)(F)[C@H](C4CC4)N3)n2)CC1=O [Example 12a, (S)-10-((5-chloro-2-(4-methyl-3-oxopiperazin-1-yl)pyrimidin-4-yl)amino)-2-cyclopropyl-3,3-difluoro-7-methyl-1,2,3,4-tetrahydro-[1,4]oxazepino[2,3-c]quinolin-6(7H)-one] | 18.6 | 8.82 |  |
| C[C@@H]1CN(c2ncc(Cl)c(Nc3ccc4c(c3)c3c(c(=O)n4C)C(=O)OC[C@H](C4CC4)N3)n2)C[C@H](C)C1(F)F [Example 8k, (S)-10-((5-chloro-2-((3S,5R)-4,4-difluoro-3,5-dimethylpiperidin-1-yl)pyrimidin-4-yl)amino)-2-cyclopropyl-7-methyl-2,3-dihydro-[1,4]oxazepino[6,5-c]quinoline-5,6(1H,7H)-dione] |  | 6.38 |  |
| C[C@H]1COC(=O)c2c(c3cc(Nc4ccnc(Cl)c4C#N)ccc3n(C)c2=O)N1 [Example 6a, (S)-2-chloro-4-((2,7-dimethyl-5,6-dioxo-1,2,3,5,6,7-hexahydro-[1,4]oxazepino[6,5-c]quinolin-10-yl)amino)nicotinonitrile] |  | 7.01 |  |
| Cn1c(=O)c2c(c3cc(Nc4nc(N5CCN(CCC#N)CC5)ncc4Cl)ccc31)N[C@@H](C1CC1)C(F)(F)CO2 [Example 13f, (S)-3-(4-(5-chloro-4-((2-cyclopropyl-3,3-difluoro-7-methyl-6-oxo-1,2,3,4,6,7-hexahydro-[1,4]oxazepino[2,3-c]quinolin-10-yl)amino)pyrimidin-2-yl)piperazin-1-yl)propanenitrile] |  | 8.66 |  |
